These results are taken from patent publication US8563723B2, “Arylsulfonyl pyrazoline carboxamidine derivatives as 5-HT6 antagonists” (Abbott Healthcare Products, B.V., priority 2008, dated 2013).

The target of data set [1] is T1, 5-HT6 receptor (Homo sapiens, UniProt P50406). The settings on record: 5-HT6 receptor (Sleight, 1998); cited from earlier work.
The conditions of data set [2]: Sleight, 1998; cited from earlier work.
The conditions of data set [3]: Rogers, 1999; cited from earlier work.
Data set [4] is described as follows: in vitro. The settings on record: human, hepatocytes.
Data set [5] is described as follows: in vitro. The conditions noted are these: rat, hepatocytes.
Data set [6] has as its target T1, 5-HT6 receptor. As to the kind of experiment: In vitro affinity for human 5-HT6 receptors ([3H]-LSD binding, CHO cell membranes). More on the design: host or cells: CHO/Gα16/mtAEQ/h5HT6-A1 cells. The settings on record: [3H]-LSD, membranes of CHO cells with human 5-HT6, read-out: 5-HT6 pKi (converted).
Method: In Vitro Affinity for Human 5-HT6 Receptors
Affinity for human 5-HT6 receptors was measured in a membrane preparation of CHO-cells transfected with human 5-HT6 receptors by binding studies using [^3H]-N-Methyl-Lysergic acid diethylamide ([^3H]-LSD) as ligand. […] CHO/Gα16/mtAEQ/h5HT6-A1 cells were grown in T-flasks in CHO-S-SFM II medium (Gibco BRL), supplemented with 1% dialysed FCS, 2 mM L-glutamine, Geneticin 500 μg/ml and Zeocin 200 μg/ml. […] After thawing cells were centrifuged during 3 minutes at 1500 g at 4° C. […] The assay was established so as to achieve steady state conditions and to optimize specific binding. For the 5-HT6 receptor, membranes from 5.10^5 cells were incubated with 5.0 nM [^3H]-LSD at 37° C. for 30 minutes. Nonspecific binding was determined using 10^−5 M serotonin. Assays were terminated by vacuum filtration through glass fibre filters (GF/B) which had been pretreated with 0.5% polyethyleneimine. Total and bound radioactivity was determined by liquid scintillation counting. […] Compounds were tested at a 4 log concentration range; all determinations were performed as triplicates. IC50 values were determined by non-linear regression analysis using Hill equation curve fitting. The inhibition constants (Ki-values) were calculated from the Cheng-Preushoff equation: Ki=IC50:(1+L/Kd) wherein L represents the concentration [^3H]-LSD in the assay, and Kd its affinity for the receptor. Results are expressed as pKi-values, means±SD of at least three separate experiments.
Data set [7] concerns the target T1, 5-HT6 receptor. In words: In vitro functional activity ((ant)agonism) on human 5-HT6 receptors, CHO-human-5HT6-Aequorin assay. It is filed as cell-based. More on the design: host or cells: CHO AequoScreen recombinant cell line (expresses mitochondrial targeted apo-Aequorin). The conditions noted are these: antagonism of 10^-8 M α-methylserotonin induced luminescence.
Method: Human-5-HT6-Aequorin cells express mitochondrial targeted apo-Aequorin. Cells have to be loaded with coelanterazine, in order to reconstitute active Aequorin. […] This luminescent response is dependent on the agonist concentration. Luminescence is measured using the MicroBeta Jet (Perkin Elmer). Agonistic effects of compounds are expressed as pEC50. […] Compounds were tested at a 5 log concentration range, and 3 independent experiments were performed in duplicate.

Molecules are shown by their SMILES. Like-named read-outs stand apart in the source and are kept apart here.

T1 sequence (P50406 whole entry): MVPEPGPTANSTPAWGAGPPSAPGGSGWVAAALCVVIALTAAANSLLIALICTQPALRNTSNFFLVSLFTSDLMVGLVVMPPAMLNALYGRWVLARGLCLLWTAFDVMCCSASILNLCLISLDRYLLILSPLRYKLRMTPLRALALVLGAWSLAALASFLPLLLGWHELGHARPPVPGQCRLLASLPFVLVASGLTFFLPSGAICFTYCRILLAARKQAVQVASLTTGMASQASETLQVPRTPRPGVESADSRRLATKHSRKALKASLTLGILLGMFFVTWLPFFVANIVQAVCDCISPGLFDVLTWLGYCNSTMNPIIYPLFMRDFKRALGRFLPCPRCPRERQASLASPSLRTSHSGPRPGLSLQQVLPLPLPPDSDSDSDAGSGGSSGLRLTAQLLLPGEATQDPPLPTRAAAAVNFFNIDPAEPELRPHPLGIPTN

With `CNc1cc(NS(=O)(=O)c2ccc(N)cc2)cc(NC)n1` [Ro 63-0563], the Ki at 5-HT6 receptor [1] is 12 nM. For the same molecule, the pharmacokinetics entry in data set [2] is recorded as “poor”.
`CNc1cc(NS(=O)(=O)c2ccc(N)cc2)nc(NC)n1` [Ro 04-6790]: at 5-HT6 receptor [1], the Ki was 50 nM. In data set [2], the pharmacokinetics result is reported as “poor”.
As for `COc1ccc(NS(=O)(=O)c2sc3ccc(Cl)cc3c2C)cc1N1CCNCC1` [SB-271046], the “performance in the Morris water maze” value in data set [3] was “improved performance”.
Take `CCN/C(=N\S(=O)(=O)c1ccc(N)cc1)N1CC(C)(C)C=N1` [Compound 3, 4-Amino-N-[(4,4-dimethyl-4,5-dihydro-pyrazol-1-yl)-ethylamino-methylene]-benzenesulfonamide]: the half-life at 1 μg/ml in “in vitro [4]” is greater than 16.7 h; in “in vitro [5]” it was 1.18 h. In addition, the Ki on 5-HT6 receptor [6] (comparison table Example 6) and at 5-HT6 receptor [6] (main compound table) was 12.6 nM each time. The “5-HT6 pA2” value on 5-HT6 receptor [7] (main compound table) is reported as 7.6.
Regarding `CCN/C(=N\S(=O)(=O)c1ccc(OC)cc1)N1CC(CC)C=N1` (centres unmarked) [Compound 81 from WO 2008/034863, reference compound], the half-life at 1 μg/ml in “in vitro [4]” is 1.13 h; in the data set “in vitro [5]”, 0.267 h. Further, on 5-HT6 receptor [6] (comparison table Example 6), the Ki is 63.1 nM. Further, on 5-HT6 receptor [7] (comparison table Example 6, read-out: 5-HT6 pA2 (converted)), the Kb was 100 nM.
